A short description of series [1]: pH stability, bioactivity by agar well diffusion. The following applies: 15 minutes at room temperature, agar well diffusion with L. lactis HP. Type of series: physicochemical. The protocol:
(§1) The susceptibility of purified capidermicin peptide to temperature, pH and protease enzymes was investigated through well diffusion assays. To determine temperature stability the purified peptide was subjected to 10, 30, 40, 50, 80, 90, 121°C for 15 minutes. Bioactivity was then determined by carrying out an agar well diffusion assay with L. lactis HP as the bacterial indicator. To evaluate the susceptibility of the peptide to varying pH values, the purified peptide solution was adjusted to pH 2–11 using 1M HCl or 1M NaOH, respectively. After a brief vortex, the peptide was incubated at room temperature for 15 minutes, and the bioactivity was again determined with the well diffusion assay with L. lactis HP. The susceptibility of the peptide to proteolytic cleavage was analysed using trypsin, α-chymotrypsin, pepsin and proteinase K (Sigma-Aldrich). Protease enzymes were dissolved in 100 mM Tris-HCl– 10 mM CaCl2, to a final concentration of 100 μg/ml. Preparations of capidermicin were incubated with the various enzymes at 37°C for 4 hours and the bioactivity of capidermicin was reassessed using the well diffusion assay described above.

Series [2] is described as follows: Temperature stability, bioactivity by agar well diffusion. Type of series: physicochemical. The following applies: purified peptide, 10, 30, 40, 50, 80, 90 or 121°C for 15 minutes; agar well diffusion with L. lactis HP. The protocol:
as §1

For series [3], the system named is trypsin. The following applies: cited from earlier work. As to the method:
(§2) Similar findings have been reported for epidermicin NI01 [42] and lacticin Q [41]. While capidermicin is insensitive to α-chymotrypsin and pepsin, a 70% reduction in activity was observed when it was treated with proteinase K or trypsin. […] Resistance to proteases has been reported for other staphyloco ...

The target in series [4] is T1, proteinase K (Parengyodontium album, UniProt P06873).
T1 construct: purchased Sigma-Aldrich
T1 sequence (P06873 106-384): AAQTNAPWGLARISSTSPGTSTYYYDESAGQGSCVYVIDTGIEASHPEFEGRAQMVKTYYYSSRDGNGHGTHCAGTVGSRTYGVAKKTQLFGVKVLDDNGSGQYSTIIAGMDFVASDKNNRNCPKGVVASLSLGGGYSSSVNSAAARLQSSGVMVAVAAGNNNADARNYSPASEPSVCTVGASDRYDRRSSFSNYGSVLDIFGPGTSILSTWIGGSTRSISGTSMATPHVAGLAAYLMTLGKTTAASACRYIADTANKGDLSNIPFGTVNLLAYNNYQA
The following applies: previously observed; cited from earlier work. As to the method:
as §2

The source of these data is PMC6795431, “Identification and characterisation of capidermicin, a novel bacteriocin produced by Staphylococcus capitis” (PLoS ONE, 2019).

Entries after “also recorded” stand apart in the source; their conditions may differ. Where no end group is shown, it is not given here. The star is where a group is joined. For = O=C*

On to “For-MSKVISALSKYGPKAVNWAKNHKGQIANWLLHGLSIPDIVQNVKNAVGIK [capidermicin]”, for which, in series [1] (pH adjusted with 1M HCl or 1M NaOH), the “Bioactivity following exposure to pH 2–8” value was “full bioactivity”. For the same substance, in series [1] (pH adjusted with 1M NaOH), the “Decrease in zone of inhibition at pH 9–11” value was found to be 70%. Also, the “Antimicrobial activity following heat treatment” value in series [2] was “retained; also recorded: unaffected”.

Take epidermicin NI01: the “Reduction in activity for trypsin” value in series [3] is listed as 50%. Moreover, the “Reduction in activity for proteinase K” value in series [4] is listed as 75%.
